# Experimental data taken from ChEMBL document CHEMBL3112479, “Synthesis and evaluation of the antimicrobial activities of 3-((5-phenyl-1,3,4-oxadiazol-2-yl)methyl)-2-thioxothiazolidin-4-one derivatives” (2014).
# Experiments:
# [1] = tested on: Pseudomonas aeruginosa; test: Antimicrobial activity against Pseudomonas aeruginosa 2742 after 20 hrs by two-fold serial dilution technique; type: functional; details: Pseudomonas aeruginosa, 2742, 20 h
# [2] = tested on: Staphylococcus aureus; test: Antimicrobial activity against Staphylococcus aureus 209 after 20 hrs by two-fold serial dilution technique; type: functional; details: Staphylococcus aureus, 209, 20 h
# [3] = tested on: Pseudomonas aeruginosa; test: Antimicrobial activity against Pseudomonas aeruginosa 2004 after 20 hrs by two-fold serial dilution technique; type: functional; details: Pseudomonas aeruginosa, 2004, 20 h
# [4] = tested on: Escherichia coli; test: Antimicrobial activity against Escherichia coli CCARM 1356 after 20 hrs by two-fold serial dilution technique; type: functional; details: CCARM 1356, 20 h
# [5] = tested on: Staphylococcus aureus; test: Antimicrobial activity against methicillin-resistant Staphylococcus aureus clinical isolate 3167 after 20 hrs by two-fold serial dilution technique; type: functional; details: isolate 3167, 20 h
# [6] = tested on: Salmonella typhimurium; test: Antimicrobial activity against Salmonella typhimurium 1926 after 20 hrs by two-fold serial dilution technique; type: functional, Salmonella enterica subsp. enterica serovar Typhimurium; details: Salmonella enterica, 1926, 20 h
# [7] = tested on: Staphylococcus aureus; test: Antimicrobial activity against quinolone-resistant Staphylococcus aureus clinical isolate 3505 after 20 hrs by two-fold serial dilution technique; type: functional; details: isolate 3505, 20 h
# [8] = tested on: Escherichia coli; test: Antimicrobial activity against Escherichia coli KCTC 1924 after 20 hrs by two-fold serial dilution technique; type: functional; details: KCTC 1924, 20 h
# [9] = tested on: Candida albicans; test: Antimicrobial activity against Candida albicans 7535 after 20 hrs by two-fold serial dilution technique; type: functional; details: Candida albicans, 7535, 20 h
# [10] = tested on: Staphylococcus aureus; test: Antimicrobial activity against methicillin-resistant Staphylococcus aureus clinical isolate 3506 after 20 hrs by two-fold serial dilution technique; type: functional; details: isolate 3506, 20 h
# [11] = tested on: Staphylococcus aureus; test: Antimicrobial activity against Staphylococcus aureus RN4220 after 20 hrs by two-fold serial dilution technique; type: functional; details: RN4220, 20 h
# [12] = tested on: Staphylococcus aureus; test: Antimicrobial activity against Staphylococcus aureus 503 after 20 hrs by two-fold serial dilution technique; type: functional; details: Staphylococcus aureus, 503, 20 h
# [13] = tested on: Salmonella typhimurium; test: Antimicrobial activity against Salmonella typhimurium 2421 after 20 hrs by two-fold serial dilution technique; type: functional, Salmonella enterica subsp. enterica serovar Typhimurium; details: Salmonella enterica, 2421, 20 h
# [14] = tested on: Streptococcus mutans; test: Antimicrobial activity against Streptococcus mutans 3065 after 20 hrs by two-fold serial dilution technique; type: functional; details: Streptococcus mutans, 3065, 20 h
# [15] = tested on: Staphylococcus aureus; test: Antimicrobial activity against quinolone-resistant Staphylococcus aureus clinical isolate 3519 after 20 hrs by two-fold serial dilution technique; type: functional; details: isolate 3519, 20 h
SMILES,MIC [1],MIC [2],MIC [3],MIC [4],MIC [5],MIC [6],MIC [7],MIC [8],MIC [9],MIC [10],MIC [11],MIC [12],MIC [13],MIC [14],MIC [15]
Cc1cccc(-c2nnc(CN3C(=O)CSC3=S)o2)c1,> 128 µg/mL,16 µg/mL,> 128 µg/mL,> 128 µg/mL,32 µg/mL,64 µg/mL,32 µg/mL,16 µg/mL,64 µg/mL,32 µg/mL,32 µg/mL,32 µg/mL,128 µg/mL,8 µg/mL,32 µg/mL
O=C1CSC(=S)N1Cc1nnc(-c2cccc(Cl)c2)o1,> 128 µg/mL,16 µg/mL,> 128 µg/mL,> 128 µg/mL,32 µg/mL,32 µg/mL,32 µg/mL,16 µg/mL,32 µg/mL,32 µg/mL,16 µg/mL,32 µg/mL,64 µg/mL,16 µg/mL,32 µg/mL
COc1c(N2CCNC(C)C2)c(F)cc2c(=O)c(C(=O)O)cn(C3CC3)c12 (stereo not given) [GATIFLOXACIN],1 µg/mL,2 µg/mL,1 µg/mL,16 µg/mL,2 µg/mL,2 µg/mL,8 µg/mL,2 µg/mL,0.5 µg/mL,2 µg/mL,0.25 µg/mL,4 µg/mL,0.5 µg/mL,0.5 µg/mL,4 µg/mL
